How the values were obtained:
[1] = test system: 4T1-luc breast cancer cells; test: syngeneic orthotopic breast tumor animal model, immune cell infiltration; type: in vivo, BALB/c mice; conditions: 10 mg/kg subcutaneous
Source text: Please further refer to FIG. 7B, which is a flow chart of the ADAM9 inhibitor used in the treatment of a syngeneic orthotopic breast tumor animal model. In the experiment, 4T1-luc breast cancer cells (5×10^4) were transplanted into the breast fat pads of BALB/c mice to establish the syngeneic orthotopic breast tumor animal model. The IVIS imaging system is used for detection, and the tumor size is represented by the luminous flux of the IVIS image. After tumor images were detected on Day 15, the ADAM9 inhibitor (the compound SW1, 10 mg/kg) was pretreated by subcutaneous injection on Day 16, Day 18, and Day 20. After the tumor was surgically removed on Day 21, the ADAM9 inhibitor (the compound SW1, 10 mg/kg) was continuously treated on Day 23, Day 25, Day 27, Day 29 and Day 31. The surgically resected syngeneic orthotopic breast tumor animal model tumors were stained by immunohistochemistry. In the experiment, a control group was injected with DMSO as a control for the treatment of the ADAM9 inhibitor. Please further refer to FIGS. 8A and 8B, which show the analysis results of the effect of the ADAM9 inhibitor on immune cell infiltration.

MiaPaCa = test: cytotoxicity on pancreatic cancer cells, MiaPaCa; type: cell-based; conditions: Homo sapiens, MIA PaCa-2
Experimental: In addition, the IC50 values (unit is μM) of the compound SW1 and the compound SW2 on pancreatic cancer cells were measured in the experiment.

In the case of `O=C1c2ccccc2C(=O)N1CCc1csc(Nc2nc(CCN3C(=O)c4ccccc4C3=O)cs2)n1` [SW1], the “number of infiltrating neutrophils” value ([1]; 4T1 primary breast tumors and lung metastatic breast tumors) is reported as “greatly reduced” and the “number of infiltrating T cells” value ([1]; primary 4T1 breast tumors and lung metastatic breast tumors) is reported as “increased”.

For `O=C(Nc1nc(CCN2C(=O)c3ccccc3C2=O)cs1)c1cc2ccccc2s1` [SW2], the IC50 (MiaPaCa) was 8.5 µM.

Reference: patent publication US20220202783A1, “Use Of ADAM9 Inhibitor As Immunomodulator” (China Medical University, priority 2019, published 2022)
